Laboratory results reported in paper PMC5926202, “Creation of a nanoformulated cabotegravir prodrug with improved antiretroviral profiles” (Biomaterials, 2017).
In brackets after ≈: the same amount, converted by molar mass.

Assays:
HIV = settings: cited from earlier work
[1] = long-acting parenteral; cited from earlier work
[2] = Solubility test in water and 1-octanol; type: physicochemical; settings: room temperature; for solubility at 24 h: water, thermodynamic from solid, 24 h mixing
Method: The solubilities of CAB and MCAB in water and 1-octanol were determined by adding excess drug to each solution at room temperature then mixing for 24 h. Samples were centrifuged at 20,000 × g for 10 min to pellet insoluble drug. The supernatants containing solubilized drug were vacuum-dried then re-dispersed in methanol for drug concentration measurement using a Waters ACQUITY ultra performance liquid chromatography (UPLC) H-Class System with TUV detector and Empower 3 software (Milford, MA, USA). […] Drug content was quantitated by comparison of peak area to those of known standards (0.05–50 µg/mL in methanol).

[3] = test system: HIV-1ADA in human monocyte derived macrophages (MDM); assay: Antiretroviral activity of CAB and MCAB in HIV-1ADA infected MDM (HIV RT activity); type: cell-based; settings: Human immunodeficiency virus 1, 168 h, HIV-1ADA MOI 0.1, MDM, 7 days after challenge
Method: (E) Antiretroviral activities of CAB and MCAB were evaluated in HIV-1ADA infected human monocyte derived macrophages (MDM). Inhibition rate was presented as percentage of reduced HIV reverse transcriptase (RT) activity as compared to positive control RT activity. Nonlinear regression was performed using log (drug concentration) vs. Inhibition rate with variable slope, and drug concentration for 50% inhibition (IC50) was calculated. […] Data are expressed as mean ± SD for n= 6 samples per group.
Monocyte-derived macrophages (MDM) were utilized. […] Briefly, monocytes were obtained by leukapheresis of HIV-1/2 and hepatitis B seronegative donor blood cells, followed by purification via countercurrent centrifugal elutriation. Elutriated monocytes were cultured as adherent cells in DMEM supplemented with 10% heat-inactivated pooled human serum, 10 µg/mL ciprofloxacin, 50 µg/mL gentamicin, and 1000 U/mL recombinant macrophage colony stimulating factor. Cells were maintained at 37 °C in a 5% CO2 incubator. Seven days later, differentiated macrophages were treated with various concentrations (0.06–1000 nM) of native CAB or MCAB for 30 min, followed by HIV-1ADA challenge at a multiplicity of infection (MOI) of 0.1 infectious viral particles/cell. […]

increase in 1-octanol solubility compared to CAB [2] [fold] | Structure (SMILES) | 4 × PA-IC90 (HIV; 4 times protein-binding-adjusted 90% inhibitory concentration ref 19-22) [µg/mL] | PA-IC90 (HIV; protein-binding-adjusted ref 24) [µg/mL] | half-life [1] | solubility at 24 h [2] [µg/mL] | IC50 [3] [nM]
 | C[C@H]1CO[C@@H]2Cn3cc(C(=O)NCc4ccc(F)cc4F)c(=O)c(O)c3C(=O)N12 [CAB, cabotegravir] | 0.66 | 0.166 | up to 54 days | 31.9 ± 14.4 (≈ 78.7 µM) | 2.5
30 | CCCCCCCCCCCCCC(=O)Oc1c2n(cc(C(=O)NCc3ccc(F)cc3F)c1=O)CC1OCC(C)N1C2=O (centres unmarked) [MCAB] |  |  |  | 5.6 ± 1.8 (≈ 9.1 µM) | 3.4
